Patent US10160780B2, “Compound extracted from husk and fruit stem of Xanthoceras sobifolia and its extracting method and use thereof” (priority 2004, dated 2018)
In brackets after ≈: the same amount, converted by molar mass. Where two headings read alike, the source gives them in different places.

What was measured:
[1] = test system: Bel-7402 human liver cancer; assay: anti-tumor activity in vitro, SRB; type: cell-based; details: Bel-7402, SRB
Source text: (§1) Take Xanthoceraside derived from the example 3 to do a test on tumor cell in vitro.

[2] = test system: MDA-MB-435 human breast cancer; assay: anti-tumor activity in vitro, SRB; type: cell-based; details: MDA-MB-435, SRB
Source text: as §1

[3] = test system: BGC-823 human gastric cancer; assay: anti-tumor activity in vitro, SRB; type: cell-based; details: BGC-823, SRB
Source text: as §1

[4] = test system: PC-3MIE8 human prostate cancer; assay: anti-tumor activity in vitro, SRB; type: cell-based; details: PC-3MIE8, SRB
Source text: as §1

HL-60 human leukemia = assay: anti-tumor activity in vitro, MTT; type: cell-based
Source text: as §1

Hela cervical cancer = assay: anti-tumor activity in vitro, SRB; type: cell-based, human
Source text: as §1

mice [5] = assay: Y maze test, memory retrieval impairment of mice induced by scopolamine; type: in vivo; details: scopolamine 2.0 mg/kg, then injection 6 mg/kg, Y maze after 20 minutes
Method: Mice were trained based on the stochastic three arms Y maze test, to screen those who had less than 30 errors of alternation before they continuously made correct choices for 10 times. After relaxed for 24 hours, the selected ones were randomized into two groups and for all of them scopolamine was injected into celiac at the ratio of 2.0 mg/kg mice weight to cause their learning and memory impairment. After 15 minutes, the mice in the treatment group were given an injection of total dose of Xanthoceraside at ratio of 6 mg/kg mice weight, while those in the control group were given an injection of the same amount of normal saline. After 20 minutes, they were arranged respectively into Y maze and the number of incorrect alternations before they made correct choices continuously for 10 times.

mice [6] = assay: Y maze test of learning and memory ability of mice; type: in vivo; details: fed 9 mg/kg, Y maze after 40 minutes, incorrect alternations before 10 continuous correct choices
Method: 20 female and male mice weighted 18˜23 g were selected and divided evenly into two groups. The treatment group was fed with total dose of Xanthoceraside at the ratio of 9 mg/kg mice weight, and the control group was fed with the same amount of normal saline. After 40 minutes, they were put into Y maze respectively for performance observation. The number of incorrect alternations for a mice were recorded before it made correct choices continuously for 10 times. If errors more than 30, cutting the value to 30.

mice [7] = assay: regular static hypoxia tolerance in an isolated environment (death time); type: in vivo; details: oral 2 mg twice a day for 6 days
Method: The above obtained Xanthoceraside was for the test of regular static hypoxia tolerance in an isolated environment to observe the effect of Xanthoceraside on death time of animals.
The test consisted of two sections. Each section was divided into two groups: control and treatment. There were three measurements to calculate death time of the mice. Those in treatment group took oral dosing of 2 mg of Xanthoceraside twice a day for 6 days. The three parameters are: • The average death time of whole group (xt); • The super average death time (xp): based on the average death time of the control group (xc), calculate the death time (xp), which is greater than the control group (xc), and calculate the mean. • The delayed death time (xp-xc): the super average death time (xp) minus the control group (xc) and calculated the mean.

## C/C=C(/C)C(=O)O[C@H]1[C@H](OC(=O)/C(C)=C\C)C2(CO)C(CC1(C)C)C1=CCC3[C@@]4(C)CC[C@H](OC5OC(C(=O)O)C(O)C(OC6OC(CO)C(O)C6O)C5OC5OC(CO)C(O)C(O)C5O)C(C)(C)C4CC[C@@]3(C)[C@]1(C)[C@@H](O)[C@H]2O (stereo partly drawn) [Xanthoceraside, 3-O-(α-L-arabinofuranosyl(1→3)-β-D-galactopyranosyl(1→2))-β-D-glucuronopyranosyl-21,22-diangeloyl-R1-barrigenol]
[1]; 0.5 μg/ml
  Inhibition ratio (%): −9.78%
[1]; 5.0 μg/ml
  Inhibition ratio (%): −1.24%
[1]; 50.0 μg/ml
  Inhibition ratio (%): 92.96%
[1]; Homo sapiens
  IC50: 39.3 µg/mL (≈ 34.5 µM)
[2]; Homo sapiens
  IC50: 18.6 µg/mL (≈ 16.3 µM)
[2]; 0.5 μg/ml
  Inhibition ratio (%): −4.50%
[2]; 5.0 μg/ml
  Inhibition ratio (%): 2.92%
[2]; 50.0 μg/ml
  Inhibition ratio (%): 93.14%
[3]; 0.5 μg/ml
  Inhibition ratio (%): −11.71%
[3]; 5.0 μg/ml
  Inhibition ratio (%): −5.92%
[3]; 50.0 μg/ml
  Inhibition ratio (%): 92.45%
[3]; Homo sapiens
  IC50: 40.2 µg/mL (≈ 35.3 µM)
[4]; Homo sapiens
  IC50: 41 µg/mL (≈ 35.9 µM)
[4]; 0.5 μg/ml
  Inhibition ratio (%): −13.90%
[4]; 5.0 μg/ml
  Inhibition ratio (%): −7.63%
[4]; 50.0 μg/ml
  Inhibition ratio (%): 92.03%
HL-60 human leukemia; HL-60, MTT
  IC50: 41.29 µg/mL (≈ 36.2 µM)
HL-60 human leukemia; HL-60, MTT, 0.5 μg/ml
  Inhibition ratio (%): 9.34%
HL-60 human leukemia; HL-60, MTT, 5.0 μg/ml
  Inhibition ratio (%): 17.68%
HL-60 human leukemia; HL-60, MTT, 50.0 μg/ml
  Inhibition ratio (%): 56.90%
HL-60 human leukemia; Homo sapiens, HL-60, HL-60, MTT, read-out: IC50
  IC50: 41.9 µg/mL (≈ 36.7 µM)
Hela cervical cancer; 0.5 μg/ml
  Inhibition ratio (%): −12.72%
Hela cervical cancer; 5.0 μg/ml
  Inhibition ratio (%): −4.05%
Hela cervical cancer; 50.0 μg/ml
  Inhibition ratio (%): 95.49%
Hela cervical cancer; Homo sapiens
  IC50: 34.2 µg/mL (≈ 30 µM)
Mice [5]
  Error frequency (X ± SD): 4.0 ± 1.5
Mice [6]
  Error frequency (X ± SD): 6.9 ± 2.3
Mice [7]; First section
  xp − xc, delayed death time: 14.59 ± 14.83(17) min
  xp, super average death time: 56.51 ± 14.59(17) min
  xt, average death time of whole group: 41.84 ± 15.35(30) min
Mice [7]; Second section
  xp − xc, delayed death time: 8.40 ± 4.94(33) min
  xp, super average death time: 33.40 ± 4.94(33) min
  xt, average death time of whole group: 31.55 ± 6.68(41) min
